In patent US20250099515A1, “LACTOBACILLUS ACIDOPHILUS TO INCREASE AGMATINE PRODUCTION BY MICROBIOTA” (SOCIETE DES PRODUITS NESTLE S.A., priority 2021, published 2025):
“And” between values parts separate entries of the source, which are not always exact repeats. Identical values can stand only once. Like-named read-outs stand apart in the source and are kept apart here.

Key:
σ2-Binding sites [1] = target: σ2-Binding sites (Rattus norvegicus, UniProt Q5U3Y7); details: Rat stomach membranes; cited from earlier work
σ2-Binding sites (Rattus norvegicus, UniProt Q5U3Y7), sequence (Q5U3Y7 whole entry): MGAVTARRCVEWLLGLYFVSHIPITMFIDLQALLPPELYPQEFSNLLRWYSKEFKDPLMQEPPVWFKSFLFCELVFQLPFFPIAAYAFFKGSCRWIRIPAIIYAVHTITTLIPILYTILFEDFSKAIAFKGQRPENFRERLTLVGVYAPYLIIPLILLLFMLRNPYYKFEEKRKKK

NMDA receptor = target: T1, NMDA receptor; details: Rat cerebral membrane; cited from earlier work
T1 construct: Ki; other: Rat cerebral membrane

α2-Adrenoceptors = details: Bovine adrenal cortex; cited from earlier work
[2] = target: I2-Imidazoline binding sites; details: Bovine endothelial cells; cited from earlier work
[3] = system: Presynaptic imidazoline receptor; details: Rabbit aorta; at 0.1 and 1 μM; cited from earlier work
[4] = target: I1-Imidazoline binding sites; details: Bovine adrenomedullary cell; cited from earlier work
[5] = target: I2-Imidazoline binding sites; details: Frog whole brain membranes; cited from earlier work
[6] = target: I2-Imidazoline binding sites; details: Human platelet-purified internal membranes; cited from earlier work
[7] = target: I2-Imidazoline binding sites; details: Rat aorta smooth muscle cells; cited from earlier work
[8] = target: I1-Imidazoline binding sites; details: Bovine ventrolateral medulla; cited from earlier work
[9] = target: I2-Imidazoline binding sites; details: Human atrial appendages; cited from earlier work
[10] = target: I2-Imidazoline binding sites; details: Rat whole brain membranes; cited from earlier work
α2B-Adrenoceptors = α2B-Adrenoceptors (Homo sapiens, UniProt P18089); details: Human recombinant receptor; cited from earlier work
α2B-Adrenoceptors, sequence (P18089 whole entry): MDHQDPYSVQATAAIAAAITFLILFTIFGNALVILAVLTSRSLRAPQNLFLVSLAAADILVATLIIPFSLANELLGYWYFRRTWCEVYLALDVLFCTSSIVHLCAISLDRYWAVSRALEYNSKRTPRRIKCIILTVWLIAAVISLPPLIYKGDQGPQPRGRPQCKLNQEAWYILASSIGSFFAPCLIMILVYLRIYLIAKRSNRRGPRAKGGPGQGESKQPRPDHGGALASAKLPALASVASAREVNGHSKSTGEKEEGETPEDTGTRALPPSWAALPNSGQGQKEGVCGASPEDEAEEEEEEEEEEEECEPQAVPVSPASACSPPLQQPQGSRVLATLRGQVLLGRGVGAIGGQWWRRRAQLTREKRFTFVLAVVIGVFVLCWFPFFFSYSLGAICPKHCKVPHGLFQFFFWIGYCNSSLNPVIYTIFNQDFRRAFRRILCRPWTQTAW

σ2-Binding sites [11] = target: σ2-Binding sites (Mus musculus, UniProt Q8VD00); details: Mouse N1E-115 cells; cited from earlier work
σ2-Binding sites (Mus musculus, UniProt Q8VD00), sequence (Q8VD00 whole entry): as the sequence (Q5U3Y7 whole entry) above, with V4L, T5A, M26L, L33V, F71L, V105A, I118L, I127V, N136S, F169Y counted along it

[12] = target: I1-Imidazoline binding sites; details: Human platelet-purified plasma membranes; cited from earlier work
[13] = target: NMDA receptor, MK-801 binding site; details: Rat cerebral cortex; cited from earlier work
[14] = target: NMDA receptor, NR1-ζ/NR2-ε2 (Mus musculus, UniProt P35438+Q01097); details: Recombinant receptor; cited from earlier work
NMDA receptor, NR1-ζ/NR2-ε2, sequence (Q01097 27-1482, other chains not shown): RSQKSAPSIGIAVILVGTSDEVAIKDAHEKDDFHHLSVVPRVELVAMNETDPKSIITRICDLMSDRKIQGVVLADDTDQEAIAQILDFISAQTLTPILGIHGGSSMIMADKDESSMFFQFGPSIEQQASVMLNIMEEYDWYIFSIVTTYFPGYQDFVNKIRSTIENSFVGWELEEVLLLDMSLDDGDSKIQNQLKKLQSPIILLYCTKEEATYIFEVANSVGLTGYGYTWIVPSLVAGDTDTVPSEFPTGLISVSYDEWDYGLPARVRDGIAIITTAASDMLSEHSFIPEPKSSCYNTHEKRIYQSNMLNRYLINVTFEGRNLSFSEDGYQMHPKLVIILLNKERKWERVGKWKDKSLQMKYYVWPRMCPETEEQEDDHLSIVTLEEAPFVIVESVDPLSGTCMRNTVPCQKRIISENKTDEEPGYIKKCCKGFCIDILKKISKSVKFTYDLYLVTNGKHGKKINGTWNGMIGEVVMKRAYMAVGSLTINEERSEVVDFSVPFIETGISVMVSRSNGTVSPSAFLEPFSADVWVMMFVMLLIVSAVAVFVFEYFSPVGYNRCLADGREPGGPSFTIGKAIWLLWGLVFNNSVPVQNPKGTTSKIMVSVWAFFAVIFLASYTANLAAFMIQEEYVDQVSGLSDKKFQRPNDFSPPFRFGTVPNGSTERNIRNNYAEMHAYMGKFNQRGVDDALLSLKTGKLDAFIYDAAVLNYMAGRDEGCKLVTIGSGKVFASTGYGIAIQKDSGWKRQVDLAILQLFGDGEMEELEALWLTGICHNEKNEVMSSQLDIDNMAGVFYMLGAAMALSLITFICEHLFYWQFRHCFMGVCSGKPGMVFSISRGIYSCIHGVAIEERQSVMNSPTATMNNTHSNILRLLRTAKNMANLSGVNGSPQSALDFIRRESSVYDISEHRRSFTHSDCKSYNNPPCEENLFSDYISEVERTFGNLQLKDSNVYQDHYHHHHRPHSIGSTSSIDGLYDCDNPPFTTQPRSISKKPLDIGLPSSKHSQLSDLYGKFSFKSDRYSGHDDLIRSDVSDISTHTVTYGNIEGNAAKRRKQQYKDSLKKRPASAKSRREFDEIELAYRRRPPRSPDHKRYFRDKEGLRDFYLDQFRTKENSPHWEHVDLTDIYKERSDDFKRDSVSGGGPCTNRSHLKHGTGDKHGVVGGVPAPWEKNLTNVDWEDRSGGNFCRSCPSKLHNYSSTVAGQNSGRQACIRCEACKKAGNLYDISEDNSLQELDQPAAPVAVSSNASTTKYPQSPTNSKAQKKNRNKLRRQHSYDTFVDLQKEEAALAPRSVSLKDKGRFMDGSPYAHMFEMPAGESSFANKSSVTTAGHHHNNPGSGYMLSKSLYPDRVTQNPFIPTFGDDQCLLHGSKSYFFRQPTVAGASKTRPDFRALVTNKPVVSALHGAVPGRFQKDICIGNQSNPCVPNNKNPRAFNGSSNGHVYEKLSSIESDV

[15] = cited from earlier work
[16] = system: ODC and SSAT in liver and kidney; details: 456.6 mg/kg i.p., suiss female mice; cited from earlier work
[17] = system: mouse kidney proximal tubule, Ras transformed NIH-3T3 fibroblast, mouse glomerular mesangial, human Schwann tumor, rat glomerular endothelial cells, human …; details: several ex-vivo and in-vitro cell assays; cited from earlier work
[18] = target: I2-Imidazoline binding sites; details: Chicken brain membranes; cited from earlier work
5-HT3 receptor = 5-HT3 receptor (Mus musculus, UniProt P23979); details: Mouse N1E-115 cells; cited from earlier work
5-HT3 receptor, sequence (P23979 24-489): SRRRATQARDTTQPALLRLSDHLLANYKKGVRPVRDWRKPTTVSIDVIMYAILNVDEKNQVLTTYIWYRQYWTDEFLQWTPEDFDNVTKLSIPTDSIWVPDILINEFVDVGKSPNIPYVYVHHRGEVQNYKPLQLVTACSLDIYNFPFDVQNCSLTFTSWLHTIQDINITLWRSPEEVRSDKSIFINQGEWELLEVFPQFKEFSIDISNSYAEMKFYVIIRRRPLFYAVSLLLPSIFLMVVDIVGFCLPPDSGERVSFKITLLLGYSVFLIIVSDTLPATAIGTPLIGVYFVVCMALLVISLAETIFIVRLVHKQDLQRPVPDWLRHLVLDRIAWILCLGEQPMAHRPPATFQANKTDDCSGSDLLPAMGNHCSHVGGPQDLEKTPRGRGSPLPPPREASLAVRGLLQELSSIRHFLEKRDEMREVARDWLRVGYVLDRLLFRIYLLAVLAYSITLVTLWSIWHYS

α-2 adrenoreceptors = details: depending on organs/cell type; read-out: Affinity for α-2 adrenoreceptors (Ki); cited from earlier work
[19] = target: NMDA receptor, NR1-ζ/NR2-ε1 (Mus musculus, UniProt P35436+P35438); details: Recombinant receptor; cited from earlier work
NMDA receptor, NR1-ζ/NR2-ε1, sequence (P35436 20-1464 limits assumed, other chains not shown): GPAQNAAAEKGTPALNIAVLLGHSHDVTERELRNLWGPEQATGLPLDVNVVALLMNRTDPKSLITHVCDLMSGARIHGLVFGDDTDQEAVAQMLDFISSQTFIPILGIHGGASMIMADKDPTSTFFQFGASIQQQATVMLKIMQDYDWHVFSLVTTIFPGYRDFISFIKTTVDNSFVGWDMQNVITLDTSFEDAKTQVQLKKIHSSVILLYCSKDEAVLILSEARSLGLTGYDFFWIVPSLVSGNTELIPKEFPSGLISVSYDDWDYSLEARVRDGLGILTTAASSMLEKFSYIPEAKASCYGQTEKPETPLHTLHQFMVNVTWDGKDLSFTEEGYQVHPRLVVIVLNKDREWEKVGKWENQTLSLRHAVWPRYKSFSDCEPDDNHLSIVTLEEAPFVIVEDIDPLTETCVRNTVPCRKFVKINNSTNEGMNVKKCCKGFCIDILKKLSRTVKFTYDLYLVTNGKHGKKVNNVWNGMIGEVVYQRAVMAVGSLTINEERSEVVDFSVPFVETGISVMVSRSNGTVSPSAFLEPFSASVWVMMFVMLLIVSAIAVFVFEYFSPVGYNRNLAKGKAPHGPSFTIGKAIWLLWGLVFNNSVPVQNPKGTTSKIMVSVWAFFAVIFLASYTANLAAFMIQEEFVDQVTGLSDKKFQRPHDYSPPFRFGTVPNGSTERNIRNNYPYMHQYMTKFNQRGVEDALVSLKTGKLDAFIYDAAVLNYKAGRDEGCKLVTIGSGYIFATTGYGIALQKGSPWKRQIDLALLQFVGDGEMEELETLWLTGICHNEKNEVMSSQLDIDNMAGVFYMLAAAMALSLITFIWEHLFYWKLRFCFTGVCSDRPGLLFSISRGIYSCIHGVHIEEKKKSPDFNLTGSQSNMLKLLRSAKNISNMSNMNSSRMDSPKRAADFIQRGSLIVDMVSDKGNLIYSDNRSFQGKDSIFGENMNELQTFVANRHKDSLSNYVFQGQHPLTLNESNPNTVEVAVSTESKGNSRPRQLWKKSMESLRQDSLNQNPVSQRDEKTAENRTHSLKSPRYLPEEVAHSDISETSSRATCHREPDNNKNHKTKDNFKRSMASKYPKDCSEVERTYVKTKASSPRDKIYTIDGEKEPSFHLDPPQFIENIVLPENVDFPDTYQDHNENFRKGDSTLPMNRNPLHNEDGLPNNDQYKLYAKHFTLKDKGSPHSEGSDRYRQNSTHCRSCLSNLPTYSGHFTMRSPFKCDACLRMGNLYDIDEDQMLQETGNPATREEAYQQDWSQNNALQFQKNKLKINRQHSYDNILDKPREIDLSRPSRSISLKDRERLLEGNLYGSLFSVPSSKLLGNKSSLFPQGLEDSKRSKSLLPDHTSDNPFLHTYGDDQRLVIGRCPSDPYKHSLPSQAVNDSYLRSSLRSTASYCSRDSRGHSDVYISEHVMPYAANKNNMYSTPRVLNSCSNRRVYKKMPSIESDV

[20] = target: Nicotinic acetylcholine receptors; details: Chick retina; cited from earlier work
[21] = target: NMDA receptor, NR1-ζ/NR2-ε3 (Mus musculus, UniProt P35438+Q01098); details: Recombinant receptor; cited from earlier work
[22] = target: I2-Imidazoline binding sites; details: Bovine adrenal chromaffin cells; cited from earlier work
α2A-Adrenoceptors = α2A-Adrenoceptors (Homo sapiens, UniProt P08913); details: Human recombinant receptor; cited from earlier work
α2A-Adrenoceptors, sequence (P08913 whole entry): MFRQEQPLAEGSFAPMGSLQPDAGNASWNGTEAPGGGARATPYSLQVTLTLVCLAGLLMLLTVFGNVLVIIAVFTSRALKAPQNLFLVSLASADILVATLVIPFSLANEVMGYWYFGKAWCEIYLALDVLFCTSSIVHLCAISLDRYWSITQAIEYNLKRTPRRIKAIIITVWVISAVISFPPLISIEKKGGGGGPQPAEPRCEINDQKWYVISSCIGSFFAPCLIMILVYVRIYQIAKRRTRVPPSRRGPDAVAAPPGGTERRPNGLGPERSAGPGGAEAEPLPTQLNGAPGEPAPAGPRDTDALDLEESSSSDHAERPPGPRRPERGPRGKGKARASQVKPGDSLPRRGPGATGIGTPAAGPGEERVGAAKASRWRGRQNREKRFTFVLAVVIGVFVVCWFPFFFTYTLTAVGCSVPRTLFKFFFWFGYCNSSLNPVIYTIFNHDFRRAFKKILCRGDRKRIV

α2C-Adrenoceptors = α2C-Adrenoceptors (Homo sapiens, UniProt P18825); details: Human recombinant receptor; cited from earlier work
α2C-Adrenoceptors, sequence (P18825 whole entry): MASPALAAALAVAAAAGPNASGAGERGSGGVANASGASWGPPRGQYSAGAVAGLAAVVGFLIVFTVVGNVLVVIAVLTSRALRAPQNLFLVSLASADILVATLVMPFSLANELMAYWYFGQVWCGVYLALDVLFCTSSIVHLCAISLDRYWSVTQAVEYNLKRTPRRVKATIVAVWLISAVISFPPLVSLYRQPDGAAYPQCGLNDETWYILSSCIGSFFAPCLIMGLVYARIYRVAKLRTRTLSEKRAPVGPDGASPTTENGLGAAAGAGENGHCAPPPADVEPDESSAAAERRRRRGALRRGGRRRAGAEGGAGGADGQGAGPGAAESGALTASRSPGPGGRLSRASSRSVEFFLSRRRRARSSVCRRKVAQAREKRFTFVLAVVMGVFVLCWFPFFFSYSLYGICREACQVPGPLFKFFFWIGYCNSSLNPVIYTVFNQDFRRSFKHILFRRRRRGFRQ

[23] = target: Presynaptic imidazoline receptor; details: Human atrial appendages; cited from earlier work
[24] = target: NMDA receptor, NR1-ζ/NR2-ε4 (Mus musculus, UniProt P35438+Q03391); details: Recombinant receptor; cited from earlier work
HTC rat hepatoma cells = details: cited from earlier work
[25] = target: I2-Imidazoline binding sites; details: Rat stomach membranes; cited from earlier work
[26] = target: I1-Imidazoline binding sites; details: Rat stomach membranes; cited from earlier work
[27] = target: NMDA receptor, polyamine binding site; details: Rat cerebral cortex; cited from earlier work
[28] = target: I2-Imidazoline binding sites; details: Rabbit whole brain membranes; cited from earlier work
colonic microbiota = test: Prodigest short-term colonic incubations with fecal inocula of five donors; assay type: cell-based, human; details: FIG. 5
Procedure: Fecal material was collected from five healthy adult donors. Fecal suspensions were prepared and mixed with an internally optimized cryoprotectant. The obtained suspensions were aliquoted, flash frozen and then preserved at −80° C. (cryostock). Just before the experiment, fecal samples were defrosted and immediately added to the reactors. A short-term screening assay typically consists of a colonic incubation of a single dose of a test compound under conditions representative for the proximal large intestine, using bacterial inocula from selected donors as microbial sources. At the start of the short-term colonic incubations, test ingredients were added to a sugar-depleted nutritional medium containing basal nutrients of the colon. Because nutrients of this sugar-depleted nutritional medium will also be fermented by the colonic microbiota, a blank containing only the sugar-depleted nutritional medium (without product) was included for each donor. Finally, fecal inocula of five donors were added (healthy adult humans with no history of antibiotic use 6 months preceding the experiment). […] Reactors were incubated for 48 h at 37° C., under shaking (90 rpm) and anaerobic conditions. The incubations were performed in fully independent reactors with sufficiently high volume in order to not only ensure robust microbial fermentation, but also to allow the collection of multiple samples over time. Sample collection enables assessment of metabolite production and thus to understand the complex microbial interactions that are taking place. An assessment was made of the change in pH, and of gas, SCFA, ammonium and lactate production at the start of the incubation and after 6 h, 24 h and 48 h. Quantitative deep shotgun sequencing was performed at the start and after 24 h and 48 h of incubation. Targeted metabolic analysis of eight polyamines, an amino acid and a neurotransmitter was performed at the start of the incubation, and after 6 h, 24 h and 48 h. Targeted metabolic analysis: Eight different polyamines were targeted, more specifically putrescine, agmatine, acetyl-agmatine, omithine, spermidine, spermine, citrulline and 4-guanidinobutanoic acid. Additionally, samples were analyzed for amino acid arginine and neurotransmitter gamma-Aminobutyric acid (GABA).

[29] = system: gut microbial polyamines, longevity; details: arginine intake from 0 to 9 mg/g body weight; abolished after antibiotics use; cited from earlier work
[30] = target: imidazoline or α-2-adrenergic receptors; details: cited from earlier work
[31] = No observed effect level (max dose without toxicity); assay type: in vivo; details: [33]
[32] = human, putrescine in test meal; cited from earlier work
[33] = rat, ten minutes after radiolabeled intravenous (IV) injection; cited from earlier work
autophagy = details: depending on organ/cell type; cited from earlier work
polyamines synthesis = details: mouse model of osteoporosis; cited from earlier work

NCCCCN=C(N)N [Agmatine, (4-aminobutyl) guanidine]
Ki (σ2-Binding sites [1]): 668 µM | Ki (NMDA receptor): 50 µM | Ki (α2-Adrenoceptors): 11 to 20 µM and 17 µM | Ki [2]: 0.24 µM | Inhibition [3]: Inhibition at 0.1 and 1 μM | Ki [4]: 0.127 µM | Ki [5]: 7.5 µM | Ki [6]: 74.4 µM | Ki [7]: 0.24 µM | Ki [8]: 0.7 µM | Ki [9]: > 100 µM | Ki [10]: 417 µM | Ki (α2B-Adrenoceptors): 164 µM | IC50 (σ2-Binding sites [11]): > 1000 µM | Ki [12]: 0.033 µM | Ki [13]: 219 µM | IC50 [14]: 330 µM | no observed effect level (max dose without toxicity) ([15]; in vivo): 2.67 g daily | effect on ODC and SSAT in liver and kidney [16]: inhibition of ODC and activation of SSAT | effect on epithelial cell proliferation in kidney renal tubule [16]: partial reduction of epithelial cell proliferation | level at which agmatine interferes with polyamine metabolism, nitric oxide synthase and promotes antiproliferative effects [17]: 1 mM | Ki [18]: 0.63 µM | IC50 (5-HT3 receptor): 708 µM | Ki (5-HT3 receptor): > 1000 µM | Ki (α-2 adrenoreceptors): 0.8 to 164 µM | IC50 [19]: 286 µM | IC50 [20]: > 1000 µM | IC50 [21]: 326 µM | Ki [22]: 6 µM | Ki (α2A-Adrenoceptors): 47 µM | Ki (α2C-Adrenoceptors): 26.3 µM | Ki [23]: > 300 µM | IC50 [24]: 289 µM | level at which agmatine interferes with polyamine metabolism, nitric oxide synthase and promotes antiproliferative effects (HTC rat hepatoma cells): 0.01 mM | Ki [25]: 266 µM | Ki [26]: 0.098 µM | Ki [27]: 14.8 µM | Ki [28]: 856 µM

N=C(N)NCCC[C@H](N)C(=O)O [Arginine, arginine]
agmatine produced (colonic microbiota; stool sample of donor A): about 5 μM | agmatine produced (colonic microbiota; stool sample of donor B): about 3 μM | agmatine produced (colonic microbiota; stool sample of donor C): did not produce agmatine | agmatine produced (colonic microbiota; stool sample of donor D): did not produce agmatine | agmatine produced (colonic microbiota; stool sample of donor E): about 5 μM | effect on fecal concentration of putrescine and spermidine [29]: increased | Ki [30]: 5000 µM

NCCCCN [Putrescine, putrescine]
no observed effect level (max dose without toxicity), total amount in brackets [31]: (~12 g) | no observed effect level (max dose without toxicity) [15, 33]: 180 mg/kg body mg/kg body weight/day | recovered in blood [32]: Up to 20% | plasma decrease [33]: 67%

NCCCCNCCCN [Spermidine, spermidine]
Dose required for cytoprotective effect/e.g. autophagy (autophagy): 10 to 100 µM | no observed effect level (max dose without toxicity), total amount in brackets [31]: (~5.4 g) | no observed effect level (max dose without toxicity) [15, 33]: 83 mg/kg body mg/kg body weight/day | plasma decrease [33]: 89%

NCCCNCCCCNCCCN [Spermine, spermine]
plasma decrease [33]: 30%

CC(=O)NCC(=O)O.CC(=O)NCC(=O)O.N=C(N)c1ccc(N=NNc2ccc(C(=N)N)cc2)cc1 [diminazene aceturate]
effect on warm-induced bone benefits (polyamines synthesis): limited the warm-induced beneficial effects
